Measured values: patent US8507547B2, “Anti-fatigue agents and oral compositions containing andrographolide as active ingredient” (Suntory Holdings Limited, priority 2007, dated 2013)

Assays:
[1] = tested on: fatigue animal models such as mice and rats; assay: Fatigue animal models such as mice and rats (summary of effective intake); assay type: in vivo
Experimental: Accordingly, the amount of andrographolide to be contained in the composition of the present invention is 0.01-500 mg per kilogram of body weight, preferably 0.1-50 mg per kilogram of body weight, more preferably 0.1-10 mg per kilogram of body weight, especially preferably 0.25-10 mg per kilogram of body weight, per daily amount of the composition to be taken by animals including humans. Especially in the case in which andrographolide is to be orally administered to humans (adult) to obtain anti-fatigue action, it is generally suitable to administer 0.1-100 mg of andrographolide, preferably 0.1-50 mg, more preferably 0.1-10 mg, especially preferably 0.25-10 mg, per daily amount of andrographolide to be taken.

[2] = tested on: Balb/c mice; assay: Measurement of liver fatigue (serum GOT, GPT, liver TBARS) after water immersion and sleep disturbance; assay type: in vivo; conditions: 8 mg per kilogram of body weight orally once daily during two days of water immersion
Experimental: The second test is measurement of liver fatigue. This is described in detail below in Example 2. […] In a liver of this model, GOT and GPT levels increased, compared with those of a normally-reared group. GOT (glutamic oxalacetic transaminase) and GPT (glutamic pyruvic transaminase), which are enzymes present in hepatic cells, are known to escape into blood when hepatic cells are damaged. Therefore, a level of damage on the liver is determined by measuring GOT and GPT in blood. […] It is inferred that the long-term general fatigue condition caused alteration in liver function, disruption of oxygen reduction system balance, and the like to result in accumulation of lipid peroxide. This is considered to support the fact that this model is an organ fatigue model.
That is to say, since this animal model is also an organ fatigue model, anti-fatigue action against organ fatigue would be confirmed if it is observed that administration of the test substance, for instance, returns a changed organ fatigue marker, such as GOT, GPT, and TBARS mentioned above, to a normal level and reduces change in the organ markers. Such anti-fatigue action is considered to regulate overall activity of internal organs to condition metabolism, thereby being involved in reduction of physical and mental fatigue stress, maintenance of energy, improvement in endurance, and the like.
Effect of andrographolide on fatigue from water immersion and sleep disturbance was examined using a partially modified method of Tanaka et al. (Neuroscience Let. 352, 159-162, 2003). […] Blood serum was separated from the blood, and GOT (glutamic oxalacetic transaminase) and GPT (glutamic pyruvic transaminase) in the blood serum were measured with a small-sized biochemistry automatic analyzer (Model 7070, Hitachi High-Technologies Corporation). Further, levels of lipid peroxide from liver were measured as a level of TBARS (thiobarbituric acid reactive substances). […] Then, the TBARS levels were measured in accordance with the method of Ohkawa et al. Anal. Biochem. 95. […]

[3] = Stability of andrographolide; assay type: physicochemical
Source text: Thus andrographolide can be contained in the composition of the present invention without being processed or made into various forms according to the purpose by use of methods that are publicly known among people skilled in the art; for instance, it can be made into food, drink, seasoning, alcoholic beverages, functional food, pharmaceuticals, or the like. Especially the composition of the present invention can be made into pharmaceuticals for oral administration or food (e.g., functional food, dietary supplement, food with nutrient function, food for specified use, food for specified health use, nutritional supplement, health food, food for diet therapy, general health food, supplements).

[4] = Safety of administered andrographolide (1000 mg per kilogram of body weight); assay type: in vivo; conditions: 1000 mg of andrographolide per kilogram of body weight
Experimental: Andrographis paniculata containing andrographolide has conventionally been taken in orally and is considered to be infinitely safe. […] It should be noted, however, that there is a report saying that, when an infusion (0.5 g per mouse) or a water extract (1 g of crude drug per mouse) of Andrographis paniculata was injected into abdominal cavities of two mice, they died within 24 hours (Chuyakudaijiten, First Issue, Vol. 3). […] Accordingly, the andrographolide in the composition of the present invention is an active ingredient that is infinitely safe. Thus the amount of andrographolide to be contained is not particularly limited, as long as the amount is adequate to produce a desired effect and not to be toxic; the amount can be appropriately determined according to targets, pathological condition and the stage of illness, impact on taste (slightly bitter), and other factors.

C=C1CC[C@@H]2[C@](C)(CO)[C@H](O)CC[C@@]2(C)[C@@H]1C/C=C1/C(=O)OC[C@H]1O [andrographolide]
intake producing desired anti-fatigue action ([1]; taken in advance or during fatigue stress to prevent or reduce mental, physical and organ fatigue): 0.25-200 mg per kilogram of body weight | intake producing desired anti-fatigue action ([1]; taken in to promote recovery from physical fatigue already developed): 0.5-8 mg per kilogram of body weight | GOT level in the blood serum ([2]; FIG. 2(A)): prevented from increasing | GPT level in the blood serum ([2]; FIG. 2(B)): prevented from increasing | liver TBARS level ([2]; FIG. 2(C)): prevented from increasing | stability to pH, moisture, oxidation, light, heat [3]: high stability | abnormality after administration [4]: no abnormality was observed
